Reference: patent publication US20150105252A1, “SUBSTITUTED PYRAZOLES AS HERBICIDES” (E I DU PONT DE NEMOURS AND COMPANY, priority 2013, published 2015)

Legend:
cocklebur = experiment: Test C preemergence; format: in vivo, Xanthium strumarium; conditions: for Plant response rating (scale of 0 to 100), Cocklebur: Preemergence, 250 g ai/ha; for Cocklebur plant response rating / Plant response rating, Cocklebur: preemergence; for Plant response rating, Cocklebur: 62 g ai/ha, scale 0 to 100, 0 = no effect, 100 = complete control
Text: (§1) Seeds of plant species selected from blackgrass (Alopecurus myosuroides), ryegrass, Italian (Italian ryegrass, Lolium multiflorum), wheat (winter wheat, Triticum aestivum), galium (catchweed bedstraw, Galium aparine), corn (Zea mays), crabgrass, large (large crabgrass, Digitaria sanguinalis), foxtail, giant (giant foxtail, Setaria faberii), johnsongrass (Sorghum halepense), lambsquarters (Chenopodium album), morningglory (Ipomoea coccinea), nutsedge, yellow (yellow nutsedge, Cyperus esculentus), pigweed (redroot pigweed, Amaranthus retroflexus), ragweed (common ragweed, Ambrosia elation), soybean (Glycine max), barnyardgrass (Echinochloa crus-galli), oilseed rape (Brassica napus), waterhemp (common waterhemp, Amaranthus rudis), oat, wild (wild oat, Avena fatua), kochia (Kochia scoparia), Surinam grass (Brachiaria decumbens), foxtail, green (green foxtail, Setaria viridis), goosegrass (Eleusine indica), bromegrass, downy (downy bromegrass, Bromus tectorum), nightshade (eastern black nightshade, Solanum ptycanthum), cocklebur (common cocklebur, Xanthium strumarium), cupgrass, woolly (woolly cupgrass, Eriochloa villosa), bermudagrass (Cynodon dactylon), sunflower, (common oilseed sunflower, Helianthus annuus), Russian thistle (Salsola kali), and velvetleaf (Abutilon theophrasti) were planted into a blend of loam soil and sand and treated preemergence with test chemicals formulated in a non-phytotoxic solvent mixture which included a surfactant.
(§2) At the same time, plants selected from these crop and weed species and also chickweed (common chickweed, Stellaria media), canarygrass (littleseed canarygrass, Phalaris minor), and deadnettle (henbit deadnettle, Lamium amplexicaule), were planted in pots containing Redi-Earth® planting medium (Scotts Company, 14111 Scottslawn Road, Marysville, Ohio 43041) comprising spaghnum peat moss, vermiculite, wetting agent and starter nutrients and treated with postemergence applications of test chemicals formulated in the same manner. Plants ranged in height from 2 to 18 cm (1- to 4-leaf stage) for postemergence treatments. Treated plants and controls were maintained in a greenhouse for 13 to 15 days, after which time all species were compared to controls and visually evaluated. Plant response ratings, summarized in Table C, are based on a scale of 0 to 100 where 0 is no effect and 100 is complete control. A dash (-) response means no test result.

cupgrass, woolly [1] = experiment: Test C preemergence; format: in vivo, Eriochloa villosa; conditions: for Plant response rating (scale of 0 to 100), Cupgrass, Woolly: Preemergence, 250 g ai/ha; for Cupgrass, Woolly plant response rating / Plant response rating, Cupgrass, Woolly: preemergence; for Plant response rating, Cupgrass, Woolly: 62 g ai/ha, scale 0 to 100, 0 = no effect, 100 = complete control
Text: as §1, §2

goosegrass = experiment: Test C postemergence; format: in vivo, Eleusine indica; conditions: for Goosegrass plant response rating: scale 0 to 100
Text: as §1, §2

cupgrass, woolly [2] = experiment: Test C postemergence; format: in vivo, Eriochloa villosa; conditions: for Cupgrass, Woolly plant response rating: scale 0 to 100
Text: as §1, §2

bermudagrass = experiment: Test C postemergence; format: in vivo, Cynodon dactylon; conditions: for Bermudagrass plant response rating: scale 0 to 100
Text: as §1, §2

canarygrass = experiment: Test C postemergence; format: in vivo, Phalaris minor; conditions: for Canarygrass plant response rating: scale 0 to 100
Text: as §1, §2

[3] = 31 g ai/ha, scale 0 to 100 (0 no effect, 100 complete control), 13 to 15 days
[4] = 125 g ai/ha, scale 0 to 100, 0 is no effect, 100 is complete control
[5] = postemergence, 250 g ai/ha, scale 0 to 100 (0 no effect, 100 complete control)
[6] = postemergence, 125 g ai/ha, scale 0 to 100, 0 no effect, 100 complete control
[7] = postemergence, 62 g ai/ha, scale 0 to 100, 0 no effect, 100 complete control

Cc1cc(C(=O)NCC(F)(F)F)nn1Cc1ccnc(C(F)(F)F)c1 [Compound 74]
Plant response rating (scale of 0 to 100), Cocklebur (cocklebur): 100
Cocklebur plant response rating (cocklebur; [3]): 100
Plant response rating, Cocklebur (cocklebur; 13 to 15 days): 100
Cocklebur plant response rating (cocklebur; [4]): 100
Plant response rating (scale of 0 to 100), Cupgrass, Woolly (cupgrass, woolly [1]): 98
Cupgrass, Woolly plant response rating (cupgrass, woolly [1]; [3]): 65
Cupgrass, Woolly plant response rating (cupgrass, woolly [1]; [4]): 98
Goosegrass plant response rating (goosegrass; Postemergence, 31 g ai/ha): 5
Goosegrass plant response rating (goosegrass; postemergence, 62 g ai/ha): 5
Plant response rating, Goosegrass (goosegrass; [5]): 10
Plant response rating, Goosegrass (goosegrass; [6]): 5
Cupgrass, Woolly plant response rating (cupgrass, woolly [2]; Postemergence, 31 g ai/ha): 5
Cupgrass, Woolly plant response rating (cupgrass, woolly [2]; postemergence, 62 g ai/ha): 10
Plant response rating, Cupgrass, Woolly (cupgrass, woolly [2]; [5]): 20
Plant response rating, Cupgrass, Woolly (cupgrass, woolly [2]; [6]): 15
Bermudagrass plant response rating (bermudagrass; Postemergence, 31 g ai/ha): 5
Bermudagrass plant response rating (bermudagrass; postemergence, 62 g ai/ha): 5
Plant response rating, Bermudagrass (bermudagrass; [5]): 5
Plant response rating, Bermudagrass (bermudagrass; [6]): 5
Canarygrass plant response rating (canarygrass; Postemergence, 31 g ai/ha): 0
Canarygrass plant response rating (canarygrass; postemergence, 62 g ai/ha): 0
Plant response rating, Canarygrass (canarygrass; [5]): 5
Plant response rating, Canarygrass (canarygrass; [6]): 0

CCONC(=O)c1cc(CC)n(Cc2cccc(OC(F)(F)F)c2)n1 [Compound 72]
Plant response rating (scale of 0 to 100), Cocklebur (cocklebur): 100
Cocklebur plant response rating (cocklebur; [3]): 0
Plant response rating, Cocklebur (cocklebur; 13 to 15 days): 0
Cocklebur plant response rating (cocklebur; [4]): 10
Plant response rating (scale of 0 to 100), Cupgrass, Woolly (cupgrass, woolly [1]): 65
Cupgrass, Woolly plant response rating (cupgrass, woolly [1]; [3]): 10
Plant response rating, Cupgrass, Woolly (cupgrass, woolly [1]; 13 to 15 days): 45
Cupgrass, Woolly plant response rating (cupgrass, woolly [1]; [4]): 45
Goosegrass plant response rating (goosegrass; Postemergence, 31 g ai/ha): 0
Goosegrass plant response rating (goosegrass; postemergence, 62 g ai/ha): 0
Plant response rating, Goosegrass (goosegrass; [5]): 5
Plant response rating, Goosegrass (goosegrass; [6]): 0
Cupgrass, Woolly plant response rating (cupgrass, woolly [2]; Postemergence, 31 g ai/ha): 5
Cupgrass, Woolly plant response rating (cupgrass, woolly [2]; postemergence, 62 g ai/ha): 10
Plant response rating, Cupgrass, Woolly (cupgrass, woolly [2]; [5]): 15
Plant response rating, Cupgrass, Woolly (cupgrass, woolly [2]; [6]): 10
Bermudagrass plant response rating (bermudagrass; Postemergence, 31 g ai/ha): 0
Bermudagrass plant response rating (bermudagrass; postemergence, 62 g ai/ha): 0
Plant response rating, Bermudagrass (bermudagrass; [5]): 20
Plant response rating, Bermudagrass (bermudagrass; [6]): 15
Canarygrass plant response rating (canarygrass; Postemergence, 31 g ai/ha): 5
Canarygrass plant response rating (canarygrass; postemergence, 62 g ai/ha): 10
Plant response rating, Canarygrass (canarygrass; [5]): 30
Plant response rating, Canarygrass (canarygrass; [6]): 20

CCc1cc(C(=O)NOC(C)C)nn1Cc1cccc(OC(F)(F)F)c1 [Compound 70]
Plant response rating (scale of 0 to 100), Cocklebur (cocklebur): 100
Cocklebur plant response rating (cocklebur; [3]): 0
Plant response rating, Cocklebur (cocklebur; 13 to 15 days): 0
Cocklebur plant response rating (cocklebur; [4]): 45
Plant response rating (scale of 0 to 100), Cupgrass, Woolly (cupgrass, woolly [1]): 90
Cupgrass, Woolly plant response rating (cupgrass, woolly [1]; [3]): 40
Plant response rating, Cupgrass, Woolly (cupgrass, woolly [1]; 13 to 15 days): 65
Cupgrass, Woolly plant response rating (cupgrass, woolly [1]; [4]): 85
Goosegrass plant response rating (goosegrass; Postemergence, 31 g ai/ha): 5
Plant response rating, Goosegrass (goosegrass; [5]): 15
Plant response rating, Goosegrass (goosegrass; [7]): 5
Plant response rating, Goosegrass (goosegrass; [6]): 10
Cupgrass, Woolly plant response rating (cupgrass, woolly [2]; Postemergence, 31 g ai/ha): 0
Plant response rating, Cupgrass, Woolly (cupgrass, woolly [2]; [5]): 20
Plant response rating, Cupgrass, Woolly (cupgrass, woolly [2]; [7]): 0
Plant response rating, Cupgrass, Woolly (cupgrass, woolly [2]; [6]): 15
Bermudagrass plant response rating (bermudagrass; Postemergence, 31 g ai/ha): 5
Plant response rating, Bermudagrass (bermudagrass; [5]): 10
Plant response rating, Bermudagrass (bermudagrass; [7]): 5
Plant response rating, Bermudagrass (bermudagrass; [6]): 10
Canarygrass plant response rating (canarygrass; Postemergence, 31 g ai/ha): 0
Plant response rating, Canarygrass (canarygrass; [5]): 60
Plant response rating, Canarygrass (canarygrass; [7]): 5
Plant response rating, Canarygrass (canarygrass; [6]): 15
